Patent publication US20160193216A1 (Nimbus Iris, Inc., priority 2012, published 2016)
Where two headings read alike, the source gives them in different places.

Key:
IRAK4 = molecular target: T1, IRAK4 (Homo sapiens, UniProt Q9NWZ3); assay: IRAK-4 activity inhibition assay (Caliper); format: biochemical; conditions: 37 μM ATP, 3.5 nM IRAK4
T1 sequence (Q9NWZ3 1-460): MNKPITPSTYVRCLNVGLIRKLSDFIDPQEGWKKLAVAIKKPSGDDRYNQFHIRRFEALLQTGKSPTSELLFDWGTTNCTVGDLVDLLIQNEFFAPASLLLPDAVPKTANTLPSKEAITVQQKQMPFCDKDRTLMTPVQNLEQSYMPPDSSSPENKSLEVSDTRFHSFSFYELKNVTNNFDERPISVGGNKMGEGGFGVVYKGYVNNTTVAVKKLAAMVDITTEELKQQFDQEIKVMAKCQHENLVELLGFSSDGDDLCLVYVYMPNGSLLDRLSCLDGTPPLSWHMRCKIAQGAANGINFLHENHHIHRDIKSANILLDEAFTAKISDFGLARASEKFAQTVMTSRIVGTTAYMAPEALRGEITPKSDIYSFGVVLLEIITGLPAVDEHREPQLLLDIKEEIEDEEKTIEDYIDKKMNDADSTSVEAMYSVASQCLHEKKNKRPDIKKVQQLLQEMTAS

THP-1 cells = assay: LPS induced cytokine (TNFα and IL8) production assay in THP-1 cells; format: cell-based; conditions: Homo sapiens, 300 ng/mL LPS
Protocol: Cytokine Production Assay
Provided compounds were also assayed in an LPS (Lipopolysacharide) or R848 (TLR-7 agonist) induced cytokine (TNFα and IL8) production assay in THP-1 cells, human peripheral blood mononuclear cells (hPBMC), and whole blood. The exemplary protocol for this assay in THP-1 cells was as follows below.
THP-1 cells from ATCC (TIB-202) were cultured in RPMI Medium 1640 (Invitrogen, Cat No. A10491-01), 10% fetal bovine serum (Invitrogen, Cat No. 10099141, Lot No. 8172882) containing 100 U/mL Penicillin, 100 μg/mL streptomycin (Invitrogen, Cat No. 15140-122), and 50 uM 2-Mercaptoethanol (Invitrogen, Cat No. 21985023). LPS-EK ultra pure (Invivogen, Cat No. tlrl-peklps) was used to induce IL8 and TNFα production, that was detected in the cell culture supernatant by IL8 HTRF kit (Cisbio, Cat No. 62IL8PEB) and TNFα HTRF kit (Cisbio, Cat No. 62TNFPEB), as per manufacturer instructions. Cells were cultured in 96 well assay plates at 100,000 cells per well, and compounds diluted in final 0.3% DMSO were pre-incubated with cells for 1 hour prior to stimulation with 300 ng/mL LPS. Cytokine production in cell supernatant was measured at 5 hours for TNFα and IL8 production, and for 16 hours for IL8 production and assessment of cell viability.
The compound numbers correspond to the compound numbers in Table 1. […] “NA” stands for “not assayed.”

SMILES | IC50 (IRAK4) [nM] | IC50 (THP-1 cells; read-out: IL8 production IC50) [nM] | IC50 (THP-1 cells; read-out: TNFα production IC50) [nM]
CN(C)[C@H]1CC[C@H](Oc2ncnc3sc4c(c23)[C@@H](CC(C#N)C(N)=O)CC4)CC1 (mixture of isomers) [Compound I-51, 2-cyano-3-(12-[[4-(dimethylamino)cyclohexyl]oxy]-7-thia-9,11-diazatricyclo[6.4.0.0[2,6]]dodeca-1(12),2(6),8,10-tetraen-3-yl)propanamide] | < 5000 | 500 to 1000 | 500 to 1000
CN(C)[C@H]1CC[C@H](Oc2ncnc3sc4c(c23)[C@@H](CCO)CC4)CC1 [Compound I-34, 2-[(3R)-12-[[4-(dimethylamino)cyclohexyl]oxy]-7-thia-9,11-diazatricyclo[6.4.0.0[2,6]]dodeca-1(12),2(6),8,10-tetraen-3-yl]ethan-1-ol] | < 5000 | 1000 to 5000 | 1000 to 5000
C[C@H](O)C[C@H]1CCc2sc3ncnc(O[C@H]4CC[C@H](N(C)C)CC4)c3c21 [Compound I-40, (2S)-1-[(3R)-12-[[4-(dimethylamino)cyclohexyl]oxy]-7-thia-9,11-diazatricyclo[6.4.0.0[2,61]]dodeca-1(8),2(6),9,11-tetraen-3-yl]propan-2-ol] | < 5000 | 1000 to 5000 | 1000 to 5000
CN(C)[C@H]1CC[C@H](Oc2ncnc3sc4c(c23)[C@@H](CCC#N)CC4)CC1 [Compound I-42, 3-[(3S)-12-[[4-(dimethylamino)cyclohexyl]oxy]-7-thia-9,11-diazatricyclo 1[6.4.0.0[2,6]]dodeca-1(8),2(6),9,11-tetraen-3-yl]propanenitrile] | < 5000 | ≤ 500 | ≤ 500
CN(C)[C@H]1CC[C@H](Oc2ncnc3sc4c(c23)[C@@H](CC(N)=O)CC4)CC1 [Compound I-43, 2-[(3R)-12-[[4-(dimethylamino)cyclohexyl]oxy]-7-thia-9,11-diazatricyclo[6.4.0.0[2,6]]dodeca-1(8),2(6),9,11-tetraen-3-yl]acetamide] | < 5000 | 500 to 1000 | 500 to 1000
CN(C)[C@H]1CC[C@H](Oc2ncnc3sc4c(c23)[C@@H](CCC(N)=O)CC4)CC1 [Compound I-44, 3-[(3S)-12-[[4-(dimethylamino)cyclohexyl]oxy]-7-thia-9,11-diazatricyclo[6.4.0.0[2,6]]dodeca-1(8),2(6),9,11-tetraen-3-yl]propanamide] | < 5000 | 1000 to 5000 | 500 to 1000
CN(C)[C@H]1CC[C@H](Oc2ncnc3sc4c(c23)[C@@H](CC(O)C(N)=O)CC4)CC1 (stereo partly drawn) [Compound I-57, 3-[(3R)-12-[[4-(dimethylamino)cyclohexyl]oxy]-7-thia-9,11-diazatricyclo[6.4.0.0[2,6]]dodeca-1(8),2(6),9,11-tetraen-3-yl]-2-hydroxypropanamide] | < 5000 | ≤ 500 | ≤ 500
CC[C@@H](O)C[C@H]1CCc2sc3ncnc(O[C@H]4CC[C@H](N5CCOCC5)CC4)c3c21 [Compound I-65, (R)-1-((R)-4-(((1r,4R)-4-morpholinocyclohexyl)oxy)-6,7-dihydro-5H-cyclopent[4,5]thieno[2,3-d]pyrimidin-5-yl)butan-2-ol] | < 5000 | 1000 to 5000 | 500 to 1000
CN(C)[C@H]1CC[C@H](Oc2ncnc3sc4c(c23)[C@@H](C[C@@H](O)C(F)(F)F)CC4)CC1 [Compound I-68, (R)-3-((R)-4-(((1r,4R)-4-(dimethylamino)cyclohexyl)oxy)-6,7-dihydro-5H-cyclopenta[4,5]thieno[2,3-d]pyrimidin-5-yl)-1,1,1-trifluoropropan-2-ol] | < 5000 | ≤ 500 | 500 to 1000

Results, then the compound that gave them:

IC50 (IRAK4) [nM] | IC50 (THP-1 cells; read-out: IL8 production IC50) [nM] | IC50 (THP-1 cells; read-out: TNFα production IC50) [nM] | SMILES
< 5000 | 1000 to 5000 | 500 to 1000 | CC[C@@H](O)C[C@H]1CCc2sc3ncnc(O[C@H]4CC[C@H](N(C)CC(=O)N5CCCC5)CC4)c3c21 [Compound I-71, 2-[(4-[[(3R)-3-[(2R)-2-hydroxybutyl]-7-thia-9,11-diazatricyclo[6.4.0.0[2,6]]dodeca-1(8),2(6),9,11-tetraen-12-yl]oxy]cyclohexyl)(methyl)amino]-1-(pyrrolidin-1-yl)ethan-1-one]
< 5000 | 500 to 1000 | 1000 to 5000 | CO[C@H](C[C@H]1CCc2sc3ncnc(O[C@H]4CC[C@H](N(C)C)CC4)c3c21)C(N)=O [Compound I-77, (2R)-3-[(3R)-12-[[4-(dimethylamino)cyclohexyl]oxy]-7-thia-9,11-diazatricyclo[6.4.0.0[2,6]]dodeca-1(8),2(6),9,11-tetraen-3-yl]-2-methoxypropanamide]
< 5000 | – | 500 to 1000 | C[C@H](O)C[C@H]1CCc2sc3ncnc(O[C@H]4CC[C@H](N5CCOCC5)CC4)c3c21 [Compound I-83, (S)-1-((R)-4-(((1 r,4R)-4-morpholinocyclohexyl)oxy)-6,7-dihydro-5H-cyclopenta[4,5]thieno[2,3-d]pyrimidin-5-yl)propan-2-ol]
< 5000 | – | 1000 to 5000 | N#CC(C[C@H]1CCc2sc3ncnc(O[C@H]4CC[C@H](N5CCOCC5)CC4)c3c21)C(N)=O (stereo partly drawn) [Compound I-86, 2-cyano-3-((R)-4-(((1r,4R)-4-morpholinocyclohexyl)oxy)-6,7-dihydro-5H-cyclopenta[4,5]thieno[2,3-d]pyrimidin-5-yl)propanamide]
< 5000 | 1000 to 5000 | 1000 to 5000 | CN(C)[C@H]1CC[C@H](Oc2ncnc3sc4c(c23)[C@@H](C[C@@H](O)C2CCCO2)CC4)CC1 (stereo partly drawn) [Compound I-88, (1R)-2-((R)-4-(((1r,4R)-4-(dimethylamino)cyclohexyl)oxy)-6,7-dihydro-5H-cyclopenta[4,5]thieno[2,3-d]pyrimidin-5-yl)-1-(tetrahydrofuran-2-yl)ethanol]
< 5000 | – | 1000 to 5000 | CN(CC(=O)N1CCCC1)[C@H]1CC[C@H](Oc2ncnc3sc4c(c23)[C@@H](CCO)CC4)CC1 [Compound I-90, 2-(((1R,4r)-4-(((R)-5-(2-hydroxyethyl)-6,7-dihydro-5H-cyclopenta[4,5]thieno[2,3-d]pyrimidin-4-yl)oxy)cyclohexyl)(methyl)amino)-1-(pyrrolidin-1-yl)ethanone]
< 5000 | – | ≥ 5000 | CN(CC(=O)N1CCCC1)[C@H]1CC[C@H](Oc2ncnc3sc4c(c23)[C@@H](CCC(N)=O)CC4)CC1 [Compound I-94, 3-((S)-4-(((1r,4S)-4-(methyl(2-oxo-2-(pyrrolidin-1-yl)ethyl)amino)cyclohexyl)oxy)-6,7-dihydro-5H-cyclopenta[4,5]thieno[2,3-d]pyrimidin-5-yl)propanamide]
< 5000 | 1000 to 5000 | 1000 to 5000 | CN(C)[C@H]1CC[C@H](Oc2ncnc3sc4c(c23)[C@@H](C[C@H](O)C(=O)NCO)CC4)CC1 [Compound I-100, (S)-3-((R)-4-(((1r,4R)-4-(dimethylamino)cyclohexyl)oxy)-6,7-dihydro-5H-cyclopenta[4,5]thieno[2,3-d]pyrimidin-5-yl)-2-hydroxy-N-(hydroxymethyl)propanamide]
< 5000 | 500 to 1000 | 500 to 1000 | CC[C@@H](O)C[C@H]1CCc2sc3ncnc(O[C@H]4CC[C@H](N(C)C)CC4)c3c21 [Compound I-106]
– | 1000 to 5000 | 500 to 1000 | CN(C)[C@H]1CC[C@H](Oc2nc(Nc3ccccc3)nc3sc4c(c23)C(CC(N)=O)CC4)CC1 (stereo partly shown) [Compound I-204, 2-(12-[[4-(dimethylamino)cyclohexyl]oxy]-10-(phenylamino)-7-thia-9, 11-diazatricyclo[6.4.0.0̂[2,6]]dodeca-1(12),2(6),8, 10-tetraen-3-yl)acetamide]
